Results: patent US20260055398A1, “IMPROVED POLYMER DEGRADING ENZYMES” (CAMBRIDGE ENTERPRISE LIMITED, priority 2022, published 2026)

How the values were obtained:
Assay type in all cases: biochemical
N20O1 = assay: Kinetics of p-NP acyl ester hydrolysis by N20O1; settings: 50 mM Tris-HCl pH 8.0, 0.3% (v/v) triton X-100, 22° C.
Description: The activity of all esterase hits was determined via hydrolysis of p-nitrophenol (p-NP) carboxylesterase by monitoring the release of p-nitrophenol. The amount of p-nitrophenol released was quantified by absorbance at 405 nm (εpNP=17,000 M−1.cm−1) using a Spectramax 190 microplate reader (Molecular Devices). Unless otherwise indicated, the measurements were performed at 22° C. in triplicate using 96-well plates with a final assay volume of 100 μL in 50 mM Tris-HCl pH 8.0 and 0.3% (v/v) triton X-100. The substrate specificity was investigated by measuring the hydrolysis of the following p-NP-fatty acyl esters: butyrate (C4), hexanoate (C6 from TCI Chemicals, H0484), octanoate (C8), decanoate (C10), dodecanoate (C12), myristate (C14) and palmitate (C16). The kinetic parameters for each substrate were obtained by non-linear regression of the data using the Michaelis-Menten equation: V=Vmax*[S]/(Km+[S]), where V is the rate, Vmax is the maximum rate achieved by the reaction, S is the substrate concentration, and Km is the Michaelis-Menten constant. The effect of the pH was evaluated by measuring the enzyme activity at pH 4.0 to 11.0 in 50 mM of the following buffers containing 0.3% (v/v) triton X-100: sodium citrate at pH 4.0, pH 5.0 and 6.0; phosphate at pH 6.0, 7.0, 8.0; Tris-HCl at pH 7.0, 8.0 and 9.0; N-cyclohexyl-3-aminopropanesulfonic acid (CAPS) at pH 9.5, 10.0, 11.0. […]

RR11O2 = assay: Kinetics of p-NP acyl ester hydrolysis by RR11O2; settings: 50 mM Tris-HCl pH 8.0, 0.3% (v/v) triton X-100, 22° C.
Description: (B) Detail of RR11O2's cavity (in blue) and the catalytic triad (in cyan) S149, D311 and H308. (C) The catalytic efficiencies of RR11O2 measured against p-NP acyl esters [acetate (C2), butyrate (C4), hexanoate (C6), octanoate (C8), decanoate (C10), dodecanoate (C12), myristate (C14) and palmitate (C16)]. The reactions were performed in buffer containing 50 mM Tris-HCl PH 8.0 and 0.3% (v/v) Triton X-100 at 22° C.
The activity of all esterase hits was determined via hydrolysis of p-nitrophenol (p-NP) carboxylesterase by monitoring the release of p-nitrophenol. The amount of p-nitrophenol released was quantified by absorbance at 405 nm (εpNP=17,000 M−1.cm−1) using a Spectramax 190 microplate reader (Molecular Devices). Unless otherwise indicated, the measurements were performed at 22° C. in triplicate using 96-well plates with a final assay volume of 100 μL in 50 mM Tris-HCl pH 8.0 and 0.3% (v/v) triton X-100. The substrate specificity was investigated by measuring the hydrolysis of the following p-NP-fatty acyl esters: butyrate (C4), hexanoate (C6 from TCI Chemicals, H0484), octanoate (C8), decanoate (C10), dodecanoate (C12), myristate (C14) and palmitate (C16). The kinetic parameters for each substrate were obtained by non-linear regression of the data using the Michaelis-Menten equation: V=Vmax*[S]/(Km+[S]), where V is the rate, Vmax is the maximum rate achieved by the reaction, S is the substrate concentration, and Km is the Michaelis-Menten constant. The effect of the pH was evaluated by measuring the enzyme activity at pH 4.0 to 11.0 in 50 mM of the following buffers containing 0.3% (v/v) triton X-100: sodium citrate at pH 4.0, pH 5.0 and 6.0; phosphate at pH 6.0, 7.0, 8.0; Tris-HCl at pH 7.0, 8.0 and 9.0; N-cyclohexyl-3-aminopropanesulfonic acid (CAPS) at pH 9.5, 10.0, 11.0.
The enzyme activity of purified RR11O2, Bla-CI5En2 and IsPETase was tested against different p-NP acyl esters [acetate (C2), butyrate (C4), hexanoate (C6), octanoate (C8), decanoate (C10), dodecanoate (C12) and myristate (C14)]. The final enzyme concentration of the enzymes in the reaction depended on the p-NP acyl ester used as substrate. Kinetics were measured at enzyme concentrations of RR11O2, Bla-CI5En2 and IsPETase between 31.25 μM to 23.2 μM, 2.5 nM to 50 nM, and 50 nM to 4.8 μM, respectively. The p-NP acyl ester substrates were used in a concentration range between 0 and 4 mM. The kinetic parameters Vmax and Km were calculated using Kaleidagraph by non-linear lest square fits of initial rates to the Michaelis-Menten equation. […] The released p-nitrophenol was monitored spectro-photometrically at 405 nm (εpNP=18.300 M−1.cm−1) by taking time points in 20 second intervals in a SpectraMax® M3 Microplate Reader (Molecular Devices).

[1] = Enzymatic degradation of PET (nanoparticles, film), HPLC of released TPA and MHET
Source text: (A) Sequence network of currently known PETases and a novel esterase metagenomic-derived, RR11O2. […] Grey nodes represent sequences extracted from MGnify and NCBI. Red node represents RR11O2, blue nodes represent known PETases, green and orange nodes represent reported cutinases and esterases showing PET activity, respectively, and light blue nodes represent described polyester degrading enzymes in the literature. To putatively characterise sequence clusters, the identification of PETases, cutinases, esterases and RR11O2 in the network helped to define the potential clusters. The cluster of RR11O2, CI5En2 and PETase are written in grey. (B) PET hydrolases catalyze the depolymerization of poly(ethylene terephthalate) (PET) to bis(2-hydroxyethyl) terephthalate (BHET), mono(2-hydroxyethyl)-terephthalic (MHET) or terephthalic acid (TPA) and ethylene glycol (EG). During characterizations via high-performance liquid chromatography (HPLC) MHET and TPA have been identified as main products. […] Absorbance at 250 nm was monitored.
(A) Enrichment of variants with higher activity compared to wildtype after sorting the ep-PCR library of CI5En2. […] Amount of the released monomers TPA and MHET was determined via HPLC and corresponding standard curves for TPA and MHET. […]
HPLC analysis of the products released after one week incubation at 30° C. using 6 μM pExp-bla-CI5En2-WT. Absorbance at 250 nm was monitored which detects released TPA and MHET.
To detect the release of TPA, MHET and BHET in the presence of various enzymes, aliquots were taken from reaction mixtures, turnover was stopped by addition of an equal volume of methanol containing 0.5% formic acid, centrifuged (16,100×g, 15 min) and analysed by HPLC (1260 Infinity II, Agilent; Nucleodur C18 analytical EC standard column (5 μm, 4×125 mm, Macherey-Nagel, Germany). As the mobile phase mixtures of buffer A (0.1% formic acid in distilled water) and buffer C (distilled water), as well as buffer D (acetonitrile) were used at a flow rate of 1 mL/min. Buffer A was kept at 20% for the whole run. […]

Row | Molecule | Km (N20O1) [µM] | Km (RR11O2) [µM] | kcat (N20O1) [s⁻¹] | kcat (RR11O2) [s⁻¹] | promiscuous activity on PET [1]
1 | CC(=O)Oc1ccc([N+](=O)[O-])cc1 [Substrate 3a, p-NP acetate] | 3800 | 30000 | 520 | 390 | –
2 | CCCCCCCCCC(=O)Oc1ccc([N+](=O)[O-])cc1 [Substrate 3e, p-NP decanoate] | 1500 | 2000 | 31 | 5.4 | –
3 | CCCCCCCC(=O)Oc1ccc([N+](=O)[O-])cc1 [Substrate 3d, p-NP octanoate] | 1100 | 370 | 370 | 11 | –
4 | CCCC(=O)Oc1ccc([N+](=O)[O-])cc1 [Substrate 3b, p-NP butyrate] | 2200 | 2200 | 630 | 46 | –
5 | CCCCCC(=O)Oc1ccc([N+](=O)[O-])cc1 [Substrate 3c, p-NP hexanoate] | 1400 | 720 | 250 | 35 | –
6 | RR11O2: metagenomic-derived esterase with promiscuous activity on PET; amino acid SEQ ID NO. 4; PDB 6ZZV (protein, RR1102) MSENMNRPLDYSQKANWYQIPEVTKEFDTFYVYATEYILSSMEEGAPDYADMENAEMLEGAAAEYMLHATAYADSTNVFMPYYRQVGLRYAGVVWKRDGIFDASVAGMPYGDIVAALDYYFEHYNNGRPFIIAGHSQGSAIIKMVLKKYFVEHPDYYKRMIAAYPIGYAFTKDEFKTYPHMKFATGECDTGVIITWNTEGPKNREVNADTCVLQPGSMSINPLNWKLDDTYAPASMNLGSLFPNKDTGKLEIQDLGADAQVFPDRGVVVTHAMGEEMTEETAKVAAEFFGPDGRHGEDYVLFYCNIKDNVAKRISAYMANRK | – | – | – | – | exhibits promiscuous activity on PET

Second part, led by results:

Row | Km (N20O1) [µM] | Km (RR11O2) [µM] | Molecule | kcat (N20O1) [s⁻¹] | kcat (RR11O2) [s⁻¹] | promiscuous activity on PET [1]
7 | 4800 | 7400 | CCCCCCCCCCCCCCCC(=O)Oc1ccc([N+](=O)[O-])cc1 [Substrate 3h, p-NP palmitate] | 0.016 | 0.017 | –
8 | 2000 | 2800 | CCCCCCCCCCCC(=O)Oc1ccc([N+](=O)[O-])cc1 [Substrate 3f, p-NP dodecanoate] | 0.5 | 0.78 | –
9 | 4400 | 1500 | CCCCCCCCCCCCCC(=O)Oc1ccc([N+](=O)[O-])cc1 [Substrate 3g, p-NP myristate] | 0.042 | 0.039 | –
